Laboratory results taken from PubChem BioAssay AID248 (DTP/NCI, 2004).
“And” between values parts separate entries of the source, which are not always exact repeats. Equal entries are not always repeated. Toxic doses and inconclusive results are not listed. Cut-off read from the data, not from the text of the source: active = T/C of 150% or more; inactive = T/C below 125%.

Tested on: L1210 leukemia ip in BDF1 mice, survival T/C
Assay: NCI In Vivo Anticancer Drug Screen. Data for tumor model L1210 Leukemia (intraperitoneal) in B6D2F1 (BDF1) mice
Details: endpoint: mean survival time, higher = longer survival
Method in brief: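 Each compound was tested against a transplantable tumor grown in mice. The endpoint was survival, with treated animals benchmarked against vehicle controls as a simple ratio.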

[1] = dose: 100.0 mg/kg/injection, schedule: Q01DX009 (ip), vehicle: Klucel (hydroxypropylcellulose) (HPC)
[2] = dose: 200.0 mg/kg/injection, schedule: Q01DX009 (ip), vehicle: Klucel (hydroxypropylcellulose) (HPC)
[3] = dose: 200.0 mg/kg/injection, schedule: Q04DX003 (ip), vehicle: Klucel (hydroxypropylcellulose) (HPC)
[4] = dose: 100.0 mg/kg/injection, schedule: Q01DX001 (ip), vehicle: saline
[5] = dose: 200.0 mg/kg/injection, schedule: Q01DX001 (ip), vehicle: saline
[6] = dose: 400.0 mg/kg/injection, schedule: Q01DX001 (ip), vehicle: saline
[7] = dose: 100.0 mg/kg/injection, schedule: Q01DX001 (ip), vehicle: Klucel (hydroxypropylcellulose) (HPC)
[8] = dose: 400.0 mg/kg/injection, schedule: Q01DX009 (ip), vehicle: Klucel (hydroxypropylcellulose) (HPC)
[9] = dose: 100.0 mg/kg/injection, schedule: Q01DX001 (ip), vehicle: saline with Tween-80
[10] = dose: 100.0 mg/kg/injection, schedule: Q04DX003 (ip), vehicle: Klucel (hydroxypropylcellulose) (HPC)
[11] = dose: 100.0 mg/kg/injection, schedule: Q04DX003 (ip), vehicle: saline with Tween-80
[12] = dose: 200.0 mg/kg/injection, schedule: Q04DX003 (ip), vehicle: saline with Tween-80
[13] = dose: 400.0 mg/kg/injection, schedule: Q04DX003 (ip), vehicle: Klucel (hydroxypropylcellulose) (HPC)
[14] = dose: 400.0 mg/kg/injection, schedule: Q04DX003 (ip), vehicle: saline with Tween-80
[15] = dose: 100.0 mg/kg/injection, schedule: Q01DX001 (ip), vehicle: other
[16] = dose: 200.0 mg/kg/injection, schedule: Q01DX001 (ip), vehicle: other

Measured: T/C

O=C(O)/C(=C\c1ccc(Cl)cc1)c1cccc2ccccc12
inactive: dose: 50.0 mg/kg/injection, schedule: Q04DX003 (ip), vehicle: Klucel (hydroxypropylcellulose) (HPC) 92 % of control | [1] 98 % of control | [2] 100 % of control | [3] 87 % of control

O=Cc1[nH]c(=S)[nH]c(=O)c1Cc1ccc(Cl)cc1
inactive: [4] 96 % of control | [5] 93 % of control | [6] 96 % of control

CC(=N/Nc1ccccc1)/C(C)=N/Nc1ccccc1
inactive: [7] 101 % of control | [1] 88 % of control | dose: 200.0 mg/kg/injection, schedule: Q01DX001 (ip), vehicle: Klucel (hydroxypropylcellulose) (HPC) 91 % of control | [2] 95 % of control | dose: 400.0 mg/kg/injection, schedule: Q01DX001 (ip), vehicle: Klucel (hydroxypropylcellulose) (HPC) 102 % of control | [8] 98 % of control

CC1=C(C)C(=O)C(SC2CC(=O)OC2=O)=C(C)C1=O (stereo unspecified)
inactive: [9] 88 % of control

COCCOC(C)C(/C=N/NC(N)=S)=N/NC(N)=S (stereo unspecified)
inactive: dose: 50.0 mg/kg/injection, schedule: Q01DX001 (ip), vehicle: saline 100 % of control | [4] 100 % of control | [5] 93 % of control | [6] 97 % of control

CCCCCOC(=O)C1OC1(C)c1ccccc1 (stereo unspecified)
inactive: dose: 100.0 mg/kg/injection, schedule: Q01DX009 (ip), vehicle: saline with Tween-80 98 % of control | dose: 200.0 mg/kg/injection, schedule: Q01DX009 (ip), vehicle: saline with Tween-80 91 % of control | dose: 400.0 mg/kg/injection, schedule: Q01DX009 (ip), vehicle: saline with Tween-80 88 % of control

NC(=O)c1nccnc1C(N)=O
inactive: [10] 101 % of control | [11] 96 % of control | [3] 101 % of control | [12] 96 % of control | [13] 93 % of control | [14] 96 % of control

COc1ccc(CCC2(C=O)CNCN2)cc1 (stereo unspecified)
inactive: [15] 98 % of control | [16] 93 % of control

CCc1ccc(C(=O)CCCCl)cc1
inactive: [11] 94 % of control | [12] 100 % of control | [14] 86 % of control

CCN(CC)c1ccc(-c2cc(NS(=O)(=O)c3ccccc3)ccc2NS(=O)(=O)c2ccccc2)cc1
inactive: [7] 95 % of control

CN1CCN(P(c2ccccc2)N2CCN(C)CC2)CC1
inactive: dose: 100.0 mg/kg/injection, schedule: Q04DX002 (ip), vehicle: saline with Tween-80 107 % of control | dose: 200.0 mg/kg/injection, schedule: Q04DX002 (ip), vehicle: saline with Tween-80 103 % of control | dose: 400.0 mg/kg/injection, schedule: Q04DX002 (ip), vehicle: saline with Tween-80 95 % of control

CCOC(=O)CC1=CCCCC1
inactive: [1] 103 % of control | [10] 102 % of control | [2] 107 % of control | [3] 96 % of control | [8] 98 % of control | [13] 86 % of control

O=S(=O)(c1ccccc1)c1ccccc1
inactive: [10] 104 % of control | [11] 95 % of control | [3] 111 % of control | [12] 103 % of control | [13] 87 % of control | [14] 89 % of control

CCOC(=O)C(Cc1ccc(OCc2ccccc2)c(OCc2ccccc2)c1)(NC=O)C(=O)OCC
inactive: [15] 94 % of control | [16] 92 % of control | dose: 400.0 mg/kg/injection, schedule: Q01DX001 (ip), vehicle: other 87 % of control

COc1ccccc1N1C(N)=NC(N)=NC1(C)C
inactive: dose: 25.0 mg/kg/injection, schedule: Q01DX009 (ip), vehicle: saline 104 % of control | dose: 25.0 mg/kg/injection, schedule: Q04DX003 (ip), vehicle: saline 113 % of control | dose: 50.0 mg/kg/injection, schedule: Q01DX009 (ip), vehicle: saline 98 % of control and 100 % of control | dose: 50.0 mg/kg/injection, schedule: Q04DX003 (ip), vehicle: saline 97 % of control | dose: 100.0 mg/kg/injection, schedule: Q04DX003 (ip), vehicle: saline 92 % of control

Nc1cccc(OCCCOc2cccc(N)c2)c1
inactive: dose: 50.0 mg/kg/injection, schedule: Q01DX009 (ip), vehicle: Klucel (hydroxypropylcellulose) (HPC) 96 % of control | [1] 101 % of control | [2] 90 % of control

NC(=S)N/N=C(/c1cccs1)C1CC1
inactive: dose: 4.0 mg/kg/injection, schedule: Q01DX Z (ip), vehicle: carboxymethylcellulose (CMC) 116 % of control | dose: 4.0 mg/kg/injection, schedule: Q01DX Z (oral), vehicle: carboxymethylcellulose (CMC) 97 % of control | dose: 8.0 mg/kg/injection, schedule: Q01DX Z (ip), vehicle: carboxymethylcellulose (CMC) 107 % of control | dose: 8.0 mg/kg/injection, schedule: Q01DX Z (oral), vehicle: carboxymethylcellulose (CMC) 115 % of control | dose: 16.0 mg/kg/injection, schedule: Q01DX Z (oral), vehicle: carboxymethylcellulose (CMC) 107 % of control

Cc1ccc(Nc2nc(N)nc(N)c2N=O)cc1
inactive: dose: 25.0 mg/kg/injection, schedule: Q01DX Z (ip), vehicle: methylcellulose (MC) 101 % of control | dose: 50.0 mg/kg/injection, schedule: Q01DX Z (ip), vehicle: methylcellulose (MC) 90 % of control

[Cl][Hg][CH2]CC1CC=CCC1 (stereo unspecified)
inactive: dose: 3.13 mg/kg/injection, schedule: Q01DX009 (ip), vehicle: saline sonified 92 % of control | dose: 6.25 mg/kg/injection, schedule: Q01DX009 (ip), vehicle: saline sonified 94 % of control | dose: 6.25 mg/kg/injection, schedule: Q04DX003 (ip), vehicle: Klucel (hydroxypropylcellulose) (HPC) 98 % of control | dose: 12.5 mg/kg/injection, schedule: Q01DX009 (ip), vehicle: saline sonified 100 % of control | dose: 12.5 mg/kg/injection, schedule: Q04DX003 (ip), vehicle: Klucel (hydroxypropylcellulose) (HPC) 87 % of control

CC(C)(Cc1ccccc1)NC(=O)NCCCl
inactive: dose: 100.0 mg/kg/injection, schedule: Q01DX009 (ip), vehicle: saline 97 % of control | dose: 100.0 mg/kg/injection, schedule: Q04DX002 (ip), vehicle: saline 93 % of control | dose: 200.0 mg/kg/injection, schedule: Q01DX009 (ip), vehicle: saline 91 % of control | dose: 200.0 mg/kg/injection, schedule: Q04DX002 (ip), vehicle: saline 96 % of control | dose: 400.0 mg/kg/injection, schedule: Q01DX009 (ip), vehicle: saline 108 % of control | dose: 400.0 mg/kg/injection, schedule: Q04DX002 (ip), vehicle: saline 96 % of control

COC(=O)c1ccc(OC)c2nc3c(C=O)c(OC)cc(OC)c3nc12
inactive: [11] 102 % of control | [12] 109 % of control | [14] 95 % of control

O=c1ccc2cc3oc(=O)ccc3cc2o1
inactive: [9] 90 % of control | dose: 200.0 mg/kg/injection, schedule: Q01DX001 (ip), vehicle: saline with Tween-80 97 % of control | dose: 400.0 mg/kg/injection, schedule: Q01DX001 (ip), vehicle: saline with Tween-80 90 % of control

O=S(=O)(c1ccccc1)N1CN(S(=O)(=O)c2ccccc2)CN(S(=O)(=O)c2ccccc2)C1
inactive: dose: 100.0 mg/kg/injection, schedule: Q04DX002 (ip), vehicle: Klucel (hydroxypropylcellulose) (HPC) 93 % of control | dose: 200.0 mg/kg/injection, schedule: Q04DX002 (ip), vehicle: Klucel (hydroxypropylcellulose) (HPC) 100 % of control | dose: 400.0 mg/kg/injection, schedule: Q04DX002 (ip), vehicle: Klucel (hydroxypropylcellulose) (HPC) 96 % of control
